Structures can show the parent of a compound that is named as a salt. Where two headings read alike, the source gives them in different places.
Key:
[1] = test system: SUDHL5; experiment: Anti-proliferative effect (CellTiter-Glo, 72 h), SUDHL5; type: cell-based; settings: SUDHL5 cells, antiproliferation, median, read-out: Antiproli SUDHL5 [M] (median)
In short: (§1)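 Luminescence from CellTiter-Glo, read 10 min after reagent addition, reports viable cell content after 72 h of compound treatment at 37 °C. A reference plate read at day 0 gives the starting baseline.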

[2] = test system: A2780; experiment: Anti-proliferative effect (CellTiter-Glo, 72 h), A2780; type: cell-based; settings: A2780 cells, median, read-out: IC50 antiproliferation assay A2780 [M] (median)
In short: as §1

[3] = test system: SUDHL10; experiment: Induction of caspase-3/7 activity (Caspase-Glo 3/7), SUDHL10; type: cell-based; settings: caspase-3/7 induction, SUDHL10 cells, 3 h treatment, median
In short: (§2)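 Apoptosis induction measured as caspase-3/7 activity (Caspase-Glo 3/7) in DLBCL lines after 3 h treatment at 37 °C; EC50 derived relative to the reference compound's maximal induction, with C0 fixed at 1.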

[4] = test system: SUDHL5; experiment: Induction of cytotoxicity (CellTiter-Glo, 5 h), SUDHL5
[5] = test system: SUDHL10; experiment: Anti-proliferative effect (CellTiter-Glo, 72 h), SUDHL10; type: cell-based; settings: SUDHL10 cells, antiproliferation, median, read-out: Antiproli SUDHL10 [M] (median)
In short: as §1

[6] = test system: SUDHL5; experiment: Induction of caspase-3/7 activity (Caspase-Glo 3/7), SUDHL5; type: cell-based; settings: caspase-3/7 induction, SUDHL5 cells, 3 h treatment, median
In short: as §2

[7] = test system: SUDHL10; experiment: Induction of cytotoxicity (CellTiter-Glo, 5 h), SUDHL10
[8] = molecular target: MCL-1 (Homo sapiens, UniProt Q07820); experiment: Protein-protein interaction assay MCL-1/Noxa BH3 peptide (MCL-1 assay), TR-FRET; type: binding; settings: MBP-MCL-1 / Noxa BH3-derived peptide, median
Sequence of MCL-1 (Q07820 whole entry): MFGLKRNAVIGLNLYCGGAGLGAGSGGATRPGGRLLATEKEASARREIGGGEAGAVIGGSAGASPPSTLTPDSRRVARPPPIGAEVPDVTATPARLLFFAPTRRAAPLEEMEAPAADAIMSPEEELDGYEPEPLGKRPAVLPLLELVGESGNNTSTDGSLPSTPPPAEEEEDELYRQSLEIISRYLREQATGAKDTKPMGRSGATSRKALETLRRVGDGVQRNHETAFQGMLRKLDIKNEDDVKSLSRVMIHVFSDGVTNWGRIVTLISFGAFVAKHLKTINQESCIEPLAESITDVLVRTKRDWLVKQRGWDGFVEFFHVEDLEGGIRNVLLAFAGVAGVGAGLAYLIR
In short: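 Inhibition values were normalized between DMSO controls with all reagents and controls lacking MCL-1. The binding competition used 1 nM MBP-MCL-1 in pH 7 Tris buffer containing 50 mM KF and 100 mM NaCl, with a 10 min compound preincubation at 22 °C.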

[9] = Homo sapiens, SU-DHL-5, 72 h, 72 h incubation
[10] = Homo sapiens, SU-DHL-5, 5 h, read-out: Cytotox SUDHL5 [M] (median), SUDHL5 cells, cytotoxicity induction, CellTiter-Glo, 5 h incubation, median
[11] = Homo sapiens, SU-DHL10, 72 h, 72 h incubation
[12] = Homo sapiens, SU-DHL10, 5 h, read-out: Cytotox SUDHL10 [M] (median), SUDHL10 cells, cytotoxicity induction, CellTiter-Glo, 5 h incubation, median
[13] = read-out: Cytotox SUDHL5 [M] (median), SUDHL5 cells, cytotoxicity induction, CellTiter-Glo, 5 h incubation, median
[14] = read-out: Cytotox SUDHL10 [M] (median), SUDHL10 cells, cytotoxicity induction, CellTiter-Glo, 5 h incubation, median
[15] = Homo sapiens, SU-DHL-5, 72 h, 72 h
[16] = Homo sapiens, SU-DHL-5, 5 h, read-out: Cytotox SUDHL5 [M] (median), SUDHL5 cells, cytotoxicity induction, CellTiter-Glo, 5 h, median
[17] = Homo sapiens, SU-DHL10, 72 h, 72 h
[18] = Homo sapiens, SU-DHL10, 5 h, read-out: Cytotox SUDHL10 [M] (median), SUDHL10 cells, cytotoxicity induction, CellTiter-Glo, 5 h, median

Row | Compound | IC50 [1, 9] [M] | IC50 ([2]; Homo sapiens, A2780, 72 h) [M] | EC50 ([3]; Homo sapiens, SU-DHL10, 3 h) [µM] | IC50 [4, 10] [M] | IC50 [5, 11] [M] | EC50 ([6]; Homo sapiens, SU-DHL-5, 3 h) [µM] | IC50 [7, 12] [M] | IC50 [8] [nM] | IC50 ([1]; 72 h incubation) [M] | IC50 [2] [M] | EC50 [3] [µM] | IC50 [4, 13] [M] | IC50 ([5]; 72 h incubation) [M] | EC50 [6] [µM] | IC50 [7, 14] [M] | IC50 [1, 15] [M] | IC50 [4, 16] [M] | IC50 [5, 17] [M] | IC50 [7, 18] [M]
1 | Cc1nn(C)c2c1-c1cccc3c(CCCOc4cccc5cc(Cl)ccc45)c(C(=O)O)n(c13)CCCCOC2 (racemic) [Example 040, (rac)-7-{3-[(6-chloronaphthalen-1-yl)oxy]propyl}-1,3-dimethyl-1,10,11,12,13,15-hexahydropyrazolo[4′,3′:9,10][1,6]oxazacycloundecino[8,7,6-hi]indole-8-carboxylic Acid] | 1.33e-05 | 1.9e-05 | > 33 | 1.66e-05 | 3.25e-06 | 21 | > 3.3e-05 | 14.4 |  |  |  |  |  |  |  |  |  |  | 
2 | CCc1nn(C)c2c1-c1c(C)ccc3c(CCCOc4cccc5c4CCCC5)c(C(=O)O)n(c13)CCCCOC2 (racemic) [Example 270, (rac)-12-ethyl-10,13-dimethyl-1-(3-((5,6,7,8-tetrahydronaphthalen-1-yl)oxy)propyl)-4,5,6,7,9,10-hexahydropyrazolo[4′,3′:9,10][1]oxa[6]azacycloundecino[8,7,6-hi]indole-2-carboxylic Acid] | 5.37e-06 | > 3.3e-05 | 19.3 | 5.39e-06 | 1.2e-05 | 6.18 | 2.19e-05 | 5.78 |  |  |  |  |  |  |  |  |  |  | 
3 | Cc1nn(CC(F)(F)F)c2c1-c1cccc3c(CCCOc4cccc5c4CCCC5)c(C(=O)O)n(c13)CCCCOC2 (racemic) [Example 161, (rac)-3-methyl-7-[3-(5,6,7,8-tetrahydronaphthalen-1-yloxy)propyl]1-(2,2,2-trifluoroethyl)-1,10,11,12,13,15-hexahydropyrazolo[4′,3′:9,10][1,6]oxazacycloundecino[8,7,6-hi]indole-8-carboxylic Acid] | 1.36e-05 | 1.62e-05 | > 33 | 1.06e-05 | 1.26e-05 | 15 | > 3.3e-05 | 52.1 |  |  |  |  |  |  |  |  |  |  | 
4 | Cc1nn(C)c2c1-c1cccc3c(CCCOc4cccc5c4CCCC5)c(C(=O)O)n(c13)CCCCOC2 (single isomer, unassigned; enantiomer 2) [Example 008, 1,3-dimethyl-7-[3-(5,6,7,8-tetrahydronaphthalen-1-yloxy)propyl]-1,10,11,12,13,15-hexahydropyrazolo[4′3′:9,10][1,6]oxazacycloundecino[8,7,6-hi]indole-8-carboxylic Acid-N-ethylethanamine Salt (Enantiomer 2)] |  |  |  |  |  |  |  | 126 | 2.59e-05 | 2.46e-05 | > 33 | > 3.3e-05 | 1.55e-05 | > 33 | > 3.3e-05 |  |  |  | 
5 | Cn1nc(CN2CCOCC2)c2c1COCC=CCn1c(C(=O)O)c(CCCOc3cccc4ccccc34)c3cccc-2c31 (single isomer, unassigned; enantiomer 2) [Example 134, (E)-1-methyl-3-(morpholin-4-ylmethyl)-7-[3-(naphthalen-1-yloxy)propyl]-1,13,15-tetrahydropyrazolo[4′,3′:9,10][1,6]oxazacycloundecino[8,7,6-hi]indole-8-carboxylic acid-N-ethylethanamine Salt (Enantiomer 2)] |  |  |  |  |  |  |  | 322 | 2.14e-05 | 2.07e-05 | > 33 | > 3.3e-05 | 1.63e-05 | > 33 | > 3.3e-05 |  |  |  | 
6 | Cn1nc(CN2CCCCC2)c2c1COCCCCn1c(C(=O)O)c(CCCOc3cccc4ccccc34)c3cccc-2c31 (single isomer, unassigned; enantiomer 1) [Example 333, 1-methyl-7-[3-(naphthalen-1-yloxy)propyl]-3-(piperidin-1-ylmethyl)-1,10,11,12,13,15-hexahydropyrazolo[4′,3′:9,10][1,6]oxazacycloundecino[8,7,6-hi]indole-8-carboxylic Acid (Enantiomer 1)] |  | 1.67e-05 | > 33 |  |  | 17.3 |  | 1040 |  |  |  |  |  |  |  | 8.44e-06 | 2.89e-05 | 8.22e-06 | > 3.3e-05
7 | Cc1ccc2c(CCCOc3cccc4ccccc34)c(C(=O)O)n3c2c1-c1c(C)nn(C)c1COCCCC3 (single isomer, unassigned; enantiomer 1) [Example 028, 1,3,4-trimethyl-7-[3-(naphthalen-1-yloxy)propyl]-1,10,11,12,13,15-hexahydropyrazolo[4′,3′:9,10][1,6]oxazacycloundecino[8,7,6-hi]indole-8-carboxylic acid-N-ethylethanamine Salt (Enantiomer 1)] | 2.97e-05 | 1.94e-05 | > 33 | > 3.3e-05 | 1.81e-05 | > 33 | > 3.3e-05 | 234 |  |  |  |  |  |  |  |  |  |  | 
8 | Cn1nc(CN2CCCC2=O)c2c1COCCCCn1c(C(=O)O)c(CCCOc3cccc4ccccc34)c3cccc-2c31 (racemic) [Example 328, (rac)-1-methyl-7-[3-(naphthalen-1-yloxy)propyl]-3-[(2-oxopyrrolidin-1-yl)methyl]-1,10,11,12,13,15-hexahydropyrazolo[4′,3′:9,10][1,6]oxazacycloundecino[8,7,6-hi]indole-8-carboxylic Acid] |  | > 3.3e-05 | > 33 |  |  | > 33 |  | 46.7 |  |  |  |  |  |  |  | 1.87e-05 | > 3.3e-05 | 1.9e-05 | > 3.3e-05
9 | COCc1nn(C)c2c1-c1cccc3c(CCCOc4cccc5ccccc45)c(C(=O)O)n(c13)CCCCN(C)C2 (racemic) [Example 183, (rac)-3-(methoxymethyl)-1,14-dimethyl-7-[3-(naphthalen-1-yloxy)propyl]-10,11,12,13,14,15-hexahydro-1H-pyrazolo[3′,4′:8,9][1,6]diazacycloundecino[10,11,1-hi]indole-8-carboxylic Acid] | 2.43e-06 | > 3.3e-05 | 5.89 | 1.88e-06 | 4.14e-06 | 1.46 | 5.55e-06 | 2.25 |  | 2.39e-05 |  |  |  |  |  |  |  |  | 
10 | Cn1ccnc1COCc1nn(C)c2c1-c1cccc3c(CCCOc4cccc5ccccc45)c(C(=O)O)n(c13)CCCCOC2 (single isomer, unassigned) [Example 232, (+)-1-methyl-3-{[(1-methyl-1H-imidazol-2-yl)methoxy]methyl}-7-[3-(naphthalen-1-yloxy)propyl]-1,10,11,12,13,15-hexahydropyrazolo[4′,3′:9,10][1,6]oxazacycloundecino[8,7,6-hi]indole-8-carboxylic Acid] |  | > 3.3e-05 |  |  | 1.97e-05 |  |  | 9.74 | 2.94e-06 |  | 13.1 | 7.5e-06 |  | 9.57 | 1.32e-05 |  |  |  | 
11 | Cc1ccc2c(C(C)CCOc3cccc4ccccc34)c(C(=O)O)n3c2c1-c1c(C)nn(C)c1COCCCC3 (single isomer, unassigned) [Example 259, 1,3,4-trimethyl-7-[4-(naphthalen-1-yloxy)butan-2-yl]-1,10,11,12,13,15-hexahydropyrazolo[4′3′:9,10][1,6]oxazacycloundecino[8,7,6-hi]indole-8-carboxylic Acid] |  |  |  |  |  |  |  | 577 | > 3.3e-05 | 2.21e-05 | > 33 | > 3.3e-05 | 2.96e-05 | 31.3 | > 3.3e-05 |  |  |  | 

Reference: patent US10981932B2, “Macrocyclic indole derivatives” (Bayer Aktiengesellschaft, priority 2016, dated 2021)
